This note sets out measurements from ChEMBL document CHEMBL1821699, “1,5-Disubstituted indole derivatives as selective human neuronal nitric oxide synthase inhibitors” (Bioorg Med Chem Lett, 2011).

The structures appear in SMILES notation.

The first test deals with T1, Nitric oxide synthase 3 (Homo sapiens, UniProt P29474).
T1 sequence (P29474 whole entry): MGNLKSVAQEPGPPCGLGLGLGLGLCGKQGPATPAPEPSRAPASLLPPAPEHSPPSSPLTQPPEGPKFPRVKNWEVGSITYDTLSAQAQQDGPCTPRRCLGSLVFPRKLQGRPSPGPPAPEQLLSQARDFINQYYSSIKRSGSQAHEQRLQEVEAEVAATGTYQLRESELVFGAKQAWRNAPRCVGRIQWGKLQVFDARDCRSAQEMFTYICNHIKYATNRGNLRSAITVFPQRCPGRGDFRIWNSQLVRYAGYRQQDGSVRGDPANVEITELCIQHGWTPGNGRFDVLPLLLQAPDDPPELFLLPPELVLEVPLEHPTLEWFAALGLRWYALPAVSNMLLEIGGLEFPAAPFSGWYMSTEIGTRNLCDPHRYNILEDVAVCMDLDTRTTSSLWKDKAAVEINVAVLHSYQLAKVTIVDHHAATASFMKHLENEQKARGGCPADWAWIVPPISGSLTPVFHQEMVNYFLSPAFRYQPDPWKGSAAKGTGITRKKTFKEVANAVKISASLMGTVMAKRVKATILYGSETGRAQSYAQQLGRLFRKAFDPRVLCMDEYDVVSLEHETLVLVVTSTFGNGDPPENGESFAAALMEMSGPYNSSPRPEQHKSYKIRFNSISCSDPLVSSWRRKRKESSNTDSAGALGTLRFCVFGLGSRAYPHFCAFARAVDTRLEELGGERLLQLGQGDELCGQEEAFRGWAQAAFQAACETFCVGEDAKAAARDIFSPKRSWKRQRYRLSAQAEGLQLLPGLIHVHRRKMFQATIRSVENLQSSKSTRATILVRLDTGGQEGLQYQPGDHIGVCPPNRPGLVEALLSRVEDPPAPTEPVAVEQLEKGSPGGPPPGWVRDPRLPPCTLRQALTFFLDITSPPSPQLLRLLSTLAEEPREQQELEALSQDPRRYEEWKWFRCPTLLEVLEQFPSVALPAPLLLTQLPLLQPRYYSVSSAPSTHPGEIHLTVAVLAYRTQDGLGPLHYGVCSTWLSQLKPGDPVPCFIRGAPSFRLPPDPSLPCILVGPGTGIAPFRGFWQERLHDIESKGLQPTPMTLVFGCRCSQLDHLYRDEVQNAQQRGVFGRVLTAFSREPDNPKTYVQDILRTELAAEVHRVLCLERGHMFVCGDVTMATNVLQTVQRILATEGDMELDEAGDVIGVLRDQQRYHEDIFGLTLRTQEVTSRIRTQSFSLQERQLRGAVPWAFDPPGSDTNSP
Put plainly: Inhibition of human recombinant eNOS expressed in Sf9 cells assessed as conversion of [3H]-L-arginine to [3H]-L-citrulline by radiometric method.
Regarding `CN1CCC[C@H]1CCn1ccc2cc(NC(=N)c3cccs3)ccc21`, the IC50 (usually the concentration that inhibits the measured activity by half) was 1.92 µM.
For `CN1CCC[C@@H]1CCn1ccc2cc(NC(=N)c3cccs3)ccc21`, the IC50 was found to be 3.37 µM.

The target in another test is Nitric oxide synthase, inducible (Homo sapiens, UniProt P35228). Put plainly: Inhibition of human recombinant iNOS expressed in Sf9 cells assessed as conversion of [3H]-L-arginine to [3H]-L-citrulline by radiometric method.
Chain of Nitric oxide synthase, inducible (P35228 whole entry): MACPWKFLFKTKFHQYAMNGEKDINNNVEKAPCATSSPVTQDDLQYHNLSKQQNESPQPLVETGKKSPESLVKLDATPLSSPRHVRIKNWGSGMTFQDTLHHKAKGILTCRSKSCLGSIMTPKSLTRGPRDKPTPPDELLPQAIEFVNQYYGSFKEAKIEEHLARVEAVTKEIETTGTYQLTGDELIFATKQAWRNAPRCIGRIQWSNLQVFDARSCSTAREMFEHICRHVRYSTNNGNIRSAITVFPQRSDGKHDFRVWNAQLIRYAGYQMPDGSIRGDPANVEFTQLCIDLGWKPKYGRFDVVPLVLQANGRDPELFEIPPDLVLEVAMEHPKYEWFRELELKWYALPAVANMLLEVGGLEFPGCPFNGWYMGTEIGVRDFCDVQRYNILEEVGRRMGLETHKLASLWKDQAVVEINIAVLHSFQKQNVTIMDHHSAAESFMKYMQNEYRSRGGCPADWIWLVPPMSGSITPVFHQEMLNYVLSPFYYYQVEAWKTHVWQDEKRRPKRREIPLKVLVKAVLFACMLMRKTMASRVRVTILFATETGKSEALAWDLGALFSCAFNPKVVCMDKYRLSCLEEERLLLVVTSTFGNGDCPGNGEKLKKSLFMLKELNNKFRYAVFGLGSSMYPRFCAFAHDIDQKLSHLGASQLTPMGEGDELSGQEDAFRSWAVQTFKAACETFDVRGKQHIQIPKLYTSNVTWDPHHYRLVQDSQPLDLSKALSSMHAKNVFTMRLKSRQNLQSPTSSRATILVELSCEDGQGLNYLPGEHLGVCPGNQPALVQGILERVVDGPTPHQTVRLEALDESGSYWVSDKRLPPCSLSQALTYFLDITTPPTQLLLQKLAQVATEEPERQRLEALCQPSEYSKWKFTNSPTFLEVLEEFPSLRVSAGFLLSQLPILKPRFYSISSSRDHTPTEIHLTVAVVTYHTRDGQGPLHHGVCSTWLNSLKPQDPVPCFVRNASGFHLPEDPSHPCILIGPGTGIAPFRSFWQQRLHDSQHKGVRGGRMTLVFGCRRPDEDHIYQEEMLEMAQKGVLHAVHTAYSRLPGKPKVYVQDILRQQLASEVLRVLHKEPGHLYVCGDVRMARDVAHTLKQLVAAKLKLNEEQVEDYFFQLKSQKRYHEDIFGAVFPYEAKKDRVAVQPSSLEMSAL
For the compound `N=C(Nc1ccc2c(ccn2CCCNC23CC4CC(CC(C4)C2)C3)c1)c1cccs1`, the IC50 was 18 µM.
As for `N=C(Nc1ccc2c(ccn2CCN2CCCCC2)c1)c1cccs1`, the IC50 turned out to be 4.61 µM.
On the same count and under the same terms, the figure for `N=C(Nc1ccc2c(ccn2CCCNC2CC2)c1)c1cccs1` is 34 µM.
Take `CN(C)CCn1ccc2cc(NC(=N)c3cccs3)ccc21`: the IC50 came out at 15.7 µM.
Same read-out and setting: the figure for `CN1CCC[C@H]1CCn1ccc2cc(NC(=N)c3cccs3)ccc21` is 17 µM; for `N=C(Nc1ccc2c(ccn2CCCN2CCOCC2)c1)c1cccs1` it is 41.6 µM; for `CN1CCCCC1CCn1ccc2cc(NC(=N)c3cccs3)ccc21` (stereo not drawn) it is 9.8 µM.
Same read-out and setting: the figure for `CN1CCC[C@@H]1CCn1ccc2cc(NC(=N)c3cccs3)ccc21` is 22 µM; for `CN1CCCC1CCn1ccc2cc(NC(=N)c3cccs3)ccc21` (racemic) it is 14 µM; for `CN1CCCC(n2ccc3cc(NC(=N)c4ccco4)ccc32)CC1` (single isomer, unassigned; (-)) it is 20 µM.
With `CN1CCCC(n2ccc3cc(NC(=N)c4ccco4)ccc32)CC1` (stereo in doubt; (+)-15), the IC50 was 73 µM.
